Test results published in patent US9410182B2, “Phosphatase coupled glycosyltransferase assay” (Bio-Techne Corporation, priority 2010, dated 2016).

Columns and labels:
Assay type in all cases: biochemical
ST6Gal 1 = biological target: T1, ST6Gal 1 (Homo sapiens, UniProt P15907); test: Sialyltransferase activity of ST6Gal 1 assayed with CD73; settings: for specific activity of ST6Gal 1 against acceptor: 1 mM lactosamine or 4 mM lactose as acceptor, 1 mM CMP-NeuAc, 0.1 μg CD73
T1 construct: purchased R&D Systems
T1 sequence (P15907 1-406): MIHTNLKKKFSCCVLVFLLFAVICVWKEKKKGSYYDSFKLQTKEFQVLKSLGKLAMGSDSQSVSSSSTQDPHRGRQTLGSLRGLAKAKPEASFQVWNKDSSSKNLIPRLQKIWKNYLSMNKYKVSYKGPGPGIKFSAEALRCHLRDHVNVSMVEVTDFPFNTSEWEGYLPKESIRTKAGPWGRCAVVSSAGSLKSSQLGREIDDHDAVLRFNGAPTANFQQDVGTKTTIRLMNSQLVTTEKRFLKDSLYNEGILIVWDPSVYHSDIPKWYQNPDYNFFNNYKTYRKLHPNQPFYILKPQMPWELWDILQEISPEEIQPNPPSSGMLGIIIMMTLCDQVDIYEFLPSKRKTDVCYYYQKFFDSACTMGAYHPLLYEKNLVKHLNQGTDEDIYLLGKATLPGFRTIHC
Description: (§1) The GDP-Fucose, UDP-Glucose, CMP-NeuAc, CMP, UDP and GDP used in the following experiments were obtained from Sigma-Aldrich (St Louis, Mo.). The recombinant human Fut7, ST6Gal1, CD73, CD39L3, non-specific alkaline phosphatase TNAP, recombinant Clostridium Difficile toxin B (TcdB) containing the glycosyltransferase domain and Malachite Green Phosphate Detection Kit were obtained from R&D Systems (Minneapolis, Minn.). The 3′-Sialyl-N-acetyllactosamine was obtained from V-LABS, Inc (Convington, La.). Unless otherwise specified, each glycosyltransferase reaction was performed in 50 μL of a buffer of 25 mM Tris, 150 mM NaCl, 5 mM MgCl2 and 5 mM MnCl2, at pH 7.5 in a 96-well plate at room temperature for 20 minutes. To determine kinetic parameters of each glycosyltransferase, multiple reactions with varied amounts of either glycosyltransferase or substrates were preceded simultaneously in the presence of fixed amounts of all other components, including a phosphatase. A well containing all components except glycosyltransferase served as a blank control for each example. The reactions were stopped by adding 30 μL of Malachite Reagent A and 100 μL of water to each well. The color was developed by adding 30 μL of Malachite Reagent B to each well followed by gently tapping on the edge and incubation for 30 minutes. The plate was then read at 620 nm with a multi-well plate reader.
Sialic acid is negatively charged under normal pH conditions, making sialyltransferases more difficult to assay than other glycosyltransferases. Because both the donor and product are likely negatively charged, separating them by common ion exchange chromatography separation is challenging. In this experiment, ST6Gal 1, a sialyltransferase, was assayed using 0.1 μg CD73 in a 96-well plate. First, enzyme curves were obtained with either 1 mM lactosamine or 4 mM lactose as the acceptor in the presence of 1 mM CMP-NeuAc. The results are shown in FIG. 7, and the specific activities against lactosamine and lactose were determined to be 458 and 41 pmol/min/μg respectively, confirming that the enzyme strongly favors lactosamine structure. The apparent Km and Vmax were determined for one substrate while fixing the other by fitting the data to KaleidaGraph 4 program.

CD73 = biological target: T2, CD73 (Homo sapiens, UniProt P21589); test: Phosphate release from CMP by CD73, malachite green detection; settings: 0.1 μg CD73, up to 10 nmol nucleotide, 15 minutes, room temperature
T2 construct: purchased R&D Systems
T2 sequence (P21589 27-549): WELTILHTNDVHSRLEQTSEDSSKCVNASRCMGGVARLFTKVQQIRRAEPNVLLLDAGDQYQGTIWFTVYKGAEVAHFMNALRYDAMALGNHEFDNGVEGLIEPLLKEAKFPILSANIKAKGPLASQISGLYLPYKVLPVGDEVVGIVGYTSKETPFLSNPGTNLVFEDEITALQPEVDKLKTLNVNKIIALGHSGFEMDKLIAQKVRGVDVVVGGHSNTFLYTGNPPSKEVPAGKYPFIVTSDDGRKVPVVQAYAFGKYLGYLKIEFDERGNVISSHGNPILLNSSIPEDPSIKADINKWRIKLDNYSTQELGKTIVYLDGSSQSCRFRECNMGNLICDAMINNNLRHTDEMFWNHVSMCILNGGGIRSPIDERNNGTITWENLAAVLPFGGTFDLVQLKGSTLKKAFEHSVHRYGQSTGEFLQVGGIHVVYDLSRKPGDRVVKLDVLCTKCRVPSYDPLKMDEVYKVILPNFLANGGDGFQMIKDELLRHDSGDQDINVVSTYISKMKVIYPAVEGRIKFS
Description: as §1, with “The reactions were stopped by adding 30 μL of Malachite Reagent A and 100 μL of water to each well. The color was developed by adding 30 μL of Malachite Reagent B to each well followed by gently tapping on the edge and incubation for 30 minutes.” left out
(§2) UDP, GDP and CMP are common donors in glycosyltransferase reactions. […] In FIG. 4C, it can be seen that TNAP, at 0.1 μg level, could only quantitatively release phosphate up to 2 nmol of nucleotide input. […]

TNAP = biological target: T3, TNAP (Homo sapiens, UniProt P05186); test: Phosphate release from UDP, GDP and CMP by TNAP, malachite green detection; settings: 1 μg TNAP, up to 10 nmol nucleotide
T3 construct: purchased R&D Systems
T3 sequence (P05186 18-501): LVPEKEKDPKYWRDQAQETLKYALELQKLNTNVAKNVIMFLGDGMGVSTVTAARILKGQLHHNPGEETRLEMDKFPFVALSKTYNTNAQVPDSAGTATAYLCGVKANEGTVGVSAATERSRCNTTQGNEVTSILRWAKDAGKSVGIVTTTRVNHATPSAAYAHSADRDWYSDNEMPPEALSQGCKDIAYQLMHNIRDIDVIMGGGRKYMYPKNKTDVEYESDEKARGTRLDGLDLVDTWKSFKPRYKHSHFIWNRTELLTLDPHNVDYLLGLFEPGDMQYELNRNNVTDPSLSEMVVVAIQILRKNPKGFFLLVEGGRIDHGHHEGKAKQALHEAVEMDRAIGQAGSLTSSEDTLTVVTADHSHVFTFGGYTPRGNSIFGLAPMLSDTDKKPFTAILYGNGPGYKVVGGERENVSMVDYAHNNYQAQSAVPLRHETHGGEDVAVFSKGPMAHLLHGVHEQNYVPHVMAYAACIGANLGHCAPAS
Description: as §1, with “The reactions were stopped by adding 30 μL of Malachite Reagent A and 100 μL of water to each well. The color was developed by adding 30 μL of Malachite Reagent B to each well followed by gently tapping on the edge and incubation for 30 minutes.” left out
as §2

CD39L3 = biological target: T4, CD39L3 (Homo sapiens, UniProt O75355); test: Phosphate release from UDP and GDP by CD39L3, malachite green detection; settings: 0.1 μg CD39L3, up to 10 nmol nucleotide, 15 minutes, room temperature
T4 construct: purchased R&D Systems
T4 sequence (O75355 1-529): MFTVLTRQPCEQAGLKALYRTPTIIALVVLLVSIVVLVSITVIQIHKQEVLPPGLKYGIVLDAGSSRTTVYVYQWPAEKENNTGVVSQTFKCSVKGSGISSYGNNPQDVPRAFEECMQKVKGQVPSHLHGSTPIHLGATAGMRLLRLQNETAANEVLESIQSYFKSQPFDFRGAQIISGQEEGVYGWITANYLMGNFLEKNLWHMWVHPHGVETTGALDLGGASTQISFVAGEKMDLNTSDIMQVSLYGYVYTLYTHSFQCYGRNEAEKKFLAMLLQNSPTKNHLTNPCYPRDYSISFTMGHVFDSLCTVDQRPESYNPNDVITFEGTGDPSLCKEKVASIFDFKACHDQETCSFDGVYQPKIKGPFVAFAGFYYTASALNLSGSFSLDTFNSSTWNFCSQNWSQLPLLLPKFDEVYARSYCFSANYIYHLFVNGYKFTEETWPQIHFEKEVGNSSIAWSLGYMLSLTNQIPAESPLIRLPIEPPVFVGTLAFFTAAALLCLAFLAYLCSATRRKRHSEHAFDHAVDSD
Description: as §1, with “The reactions were stopped by adding 30 μL of Malachite Reagent A and 100 μL of water to each well. The color was developed by adding 30 μL of Malachite Reagent B to each well followed by gently tapping on the edge and incubation for 30 minutes.” left out
as §2

## CC(=O)N[C@H]1[C@H]([C@H](O)[C@H](O)CO)O[C@](OP(=O)(O)OC[C@H]2O[C@@H](n3ccc(N)nc3=O)[C@H](O)[C@@H]2O)(C(=O)O)C[C@@H]1O [CMP-NeuAc, CMP-N-Acetylneuraminic acid]
ST6Gal 1; donor varied, lactosamine fixed at 1 mM
  apparent Vmax: 710 ± 16 pmol/min/µg
ST6Gal 1; donor varied, lactosamine fixed at 1 mM, read-out: apparent Km
  Km: 530 ± 40 µM

## Nc1ccn([C@@H]2O[C@H](COP(=O)(O)O)[C@@H](O)[C@H]2O)c(=O)n1 [CMP]
CD73
  dephosphorylation of nucleotide by CD73: completely

## Nc1nc2c(ncn2[C@@H]2O[C@H](COP(=O)(O)OP(=O)(O)O)[C@@H](O)[C@H]2O)c(=O)[nH]1 [GDP]
TNAP
  phosphate released from nucleotide by TNAP: about two
CD39L3
  phosphate released from nucleotide by CD39L3: one

## O=c1ccn([C@@H]2O[C@H](COP(=O)(O)OP(=O)(O)O)[C@@H](O)[C@H]2O)c(=O)[nH]1 [UDP]
TNAP
  phosphate released from nucleotide by TNAP: about two
CD39L3
  phosphate released from nucleotide by CD39L3: one

## N[C@H]1C(O)O[C@H](CO)[C@@H](O[C@@H]2O[C@H](CO)[C@H](O)[C@H](O)[C@H]2O)[C@@H]1O (stereo partly drawn) [lactosamine]
ST6Gal 1
  specific activity of ST6Gal 1 against acceptor: 458 pmol/min/µg

## OC[C@H]1O[C@@H](O[C@H]2[C@H](O)[C@@H](O)C(O)O[C@@H]2CO)[C@H](O)[C@@H](O)[C@H]1O (stereo partly drawn) [lactose]
ST6Gal 1
  specific activity of ST6Gal 1 against acceptor: 41 pmol/min/µg
